Results as given in article PMC6316070 (Marine Drugs, 2018).

Experiments:
Conditions in all cases: human
in vitro [1] = experiment: in vitro
Protocol: (§1) The in vitro cytotoxic effects of the novel compounds 1, 8, and 9 were evaluated on five human cancer cell lines using the MTT (3-(4,5-dimethylthiazol-2-yl)-2,5-diphenyltetrazolium bromide) method [32, 33, 34]. […] All cells were cultured in RPMI-1640 medium containing 10% fetal bovine serum (FBS), and kept in a humidified atmosphere containing 5% CO2 at 37 °C. […] In brief, the cell suspensions (200 μL, 5 × 10^4 cells/mL) were seeded into 96-well culture plates and kept at 37 °C for 12 h, then the sample solvents (20 μL) were added into each well and further cultured at 37 °C for 24 h. Subsequently, MTT (100 μg) was added into each well and incubated at 37 °C for 4 h. After removal of the 100 μL culture medium, the cells were lysed with 20% SDS-50% DMF (100 μL). The remaining lysates were subjected to measurements of the optical density at 595 nm with a 96-well microtiter plate reader. Reed and Muench’s method was used to calculate IC50 values [32].

in vitro [2] = experiment: in vitro; remark: listed apart in the source
Protocol: as §1

in vitro [3] = experiment: in vitro; remark: listed apart in the source
Protocol: as §1

in vitro [4] = experiment: in vitro; remark: listed apart in the source
Protocol: as §1

in vitro [5] = experiment: in vitro; remark: listed apart in the source
Protocol: as §1

Measured: IC50

CC(=O)OCC(C)=CCCC(C)(O)C1CCC(C)(O)C1C (stereo not shown) [Compound 8, Cyclonerodiol C]
> 40 µM: all assays above

CC1C(C(C)(O)CC=CC(C)(C)O)CCC1(C)O (stereo not shown) [Compound 9, Cyclonerodiol D]
> 40 µM: all assays above
